Assay results: the supplement of paper PMC10307832

Legend:
BAY61-3606 = compound: COC1=C(C=C(C=C1)C2=CC3=NC=CN3C(=N2)NC4=C(C=CC=N4)C(=O)N)OC [BAY61-3606]; test: relative viability (nuclei count vs DMSO), 5 days (fraction); higher = more cells survive
Outline: (§1)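 Nuclei counted with MetaXpress define viability as the ratio of treated to vehicle wells, given as a median across plates. The lung cancer cell lines were in 1536-well plates, pinned with five √10-spaced library-drug doses and imaged at 4× after 5 days and Hoechst staining. Plates passed with control CV below 25% and at least one doubling.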

Doxorubicin = compound: COc1cccc2c1C(=O)c1c(O)c3c(c(O)c1C2=O)C[C@@](O)(C(=O)CO)C[C@@H]3O[C@H]1C[C@H](N)[C@H](O)[C@H](C)O1 [Doxorubicin]; test: as above
Outline: as §1

Cell Line | relative viability (BAY61-3606; 0.02 µM) | relative viability (BAY61-3606; 0.06325 µM) | relative viability (BAY61-3606; 0.2 µM) | relative viability (BAY61-3606; 0.6325 µM) | relative viability (BAY61-3606; 2 µM) | relative viability (Doxorubicin; 0.001 µM) | relative viability (Doxorubicin; 0.003162 µM) | relative viability (Doxorubicin; 0.01 µM) | relative viability (Doxorubicin; 0.03162 µM) | relative viability (Doxorubicin; 0.1 µM)
201T | 0.996 | 0.959 | 1 | 1.01 | 0.95 | 0.867 | 0.985 | 0.987 | 0.978 | 0.942
A549 | 1.01 | 1.07 | 0.959 | 1.05 | 0.857 | 1 | 0.991 | 0.869 | 0.395 | 0.503
A-427 | 1.08 | 1.01 | 0.963 | 1.03 | 0.892 | 0.969 | 1.03 | 0.936 | 0.81 | 0.757
ABC-1 | 1.04 | 0.942 | 0.986 | 1.03 | 0.854 | 0.943 | 1.01 | 0.811 | 0.414 | 0.307
BEN | 1.05 | 0.891 | 1.1 | 1.07 | 1.05 | 1.19 | 1.03 | 0.985 | 0.683 | 0.85
CAL-12T | 1.02 | 1.07 | 0.938 | 0.99 | 0.628 | 0.973 | 1.05 | 0.926 | 0.541 | 0.349
COR-L23 | 1.05 | 1.09 | 1.06 | 1 | 0.909 | 0.998 | 1.05 | 0.932 | 0.718 | 0.235
COR-L 105 | 0.932 | 0.892 | 0.951 | 0.852 | 0.568 | 0.951 | 0.853 | 0.827 | 0.706 | 0.503
Calu-6 | 1.07 | 1.05 | 0.979 | 0.963 | 0.807 | 0.966 | 1.02 | 0.929 | 0.566 | 0.431
ChaGo-K-1 | 0.97 | 0.942 | 0.918 | 0.949 | 0.945 | 1.06 | 1.09 | 0.923 | 0.892 | 0.563
EBC-1 | 1.04 | 0.999 | 0.953 | 1.04 | 0.888 | 1 | 1.09 | 1.01 | 0.702 | 0.534
EKVX | 1.04 | 1 | 0.884 | 1.07 | 0.99 | 1.01 | 1.03 | 0.963 | 0.951 | 0.902
EMC-BAC-2 | 1.04 | 1 | 0.921 | 0.988 | 0.942 | 1.34 | 0.844 | 0.748 | 0.469 | 0.326
EPLC-272H | 1.02 | 1.05 | 0.894 | 0.873 | 0.729 | 0.84 | 0.949 | 0.932 | 0.792 | 0.964
H3255 | 0.976 | 0.905 | 0.928 | 1.16 | 0.898 | 0.892 | 0.993 | 0.931 | 0.849 | 0.727
HARA | 1.03 | 0.927 | 0.945 | 0.953 | 0.866 | 0.983 | 1.12 | 1.07 | 0.945 | 0.955
HCC-15 | 1 | 0.971 | 0.994 | 0.988 | 0.896 | 0.807 | 1.08 | 0.975 | 0.811 | 0.654

Cell Line | relative viability (BAY61-3606; 0.02 µM) | relative viability (BAY61-3606; 0.06325 µM) | relative viability (BAY61-3606; 0.2 µM) | relative viability (BAY61-3606; 0.6325 µM) | relative viability (BAY61-3606; 2 µM) | relative viability (Doxorubicin; 0.001 µM) | relative viability (Doxorubicin; 0.003162 µM) | relative viability (Doxorubicin; 0.01 µM) | relative viability (Doxorubicin; 0.03162 µM) | relative viability (Doxorubicin; 0.1 µM)
HCC-44 | 0.947 | 0.989 | 1.03 | 1.03 | 1.05 | 0.998 | 0.992 | 0.941 | 1.03 | 0.894
HCC-78 | 1.04 | 0.934 | 0.973 | 0.985 | 1.08 | 1 | 0.999 | 0.851 | 0.955 | 0.954
HCC-366 | 0.988 | 1.03 | 1.01 | 0.96 | 0.903 | 0.909 | 0.991 | 1.02 | 0.959 | 0.587
HCC-827 | 1.02 | 1.01 | 1.06 | 1.1 | 0.994 | 1.01 | 1.01 | 1.04 | 1.03 | 1
HOP-62 | 0.969 | 1 | 0.954 | 0.956 | 0.964 | 0.937 | 1.04 | 1 | 1.04 | 1.02
IA-LM | 0.984 | 0.864 | 0.956 | 1.03 | 0.86 | 0.902 | 1.04 | 0.889 | 0.749 | 0.508
LC-2-ad | 1.07 | 1.01 | 0.932 | 1.04 | 0.841 | 0.883 | 0.909 | 0.948 | 0.943 | 0.793
LCLC-97TM1 | 1.06 | 1.07 | 1 | 0.892 | 1.01 | 0.909 | 1.11 | 0.909 | 0.822 | 0.749
LCLC-103H | 1.07 | 0.992 | 0.993 | 1.03 | 0.987 | 0.966 | 1.04 | 0.981 | 1.02 | 0.957
LK-2 | 1.08 | 0.939 | 1.06 | 1.09 | 0.923 | 0.903 | 1.08 | 0.829 | 0.788 | 1.08
LOU-NH91 | 0.991 | 0.816 | 0.965 | 0.996 | 0.862 | 0.692 | 0.948 | 1.05 | 0.914 | 0.761
LU99A | 1.04 | 0.953 | 1.01 | 0.967 | 0.702 | 0.938 | 1.02 | 0.893 | 0.838 | 0.813
LXF-289 | 0.95 | 1.07 | 0.874 | 1.04 | 1.05 | 0.952 | 1.03 | 1.01 | 1.05 | 1.01
NCI-H23 | 1.11 | 1.03 | 0.78 | 0.947 | 0.789 | – | 1.06 | 0.978 | 0.654 | 0.532
NCI-H322M | 1.04 | 0.919 | 1 | 0.921 | 0.843 | 1 | 0.887 | 0.976 | 0.904 | 0.568
NCI-H358 | 0.954 | 0.947 | 0.87 | 0.864 | 0.369 | 0.975 | 1.04 | 0.761 | 0.235 | 0.199
